Laboratory results taken from article PMC6368365, “Didehydro-Cortistatin A Inhibits HIV-1 by Specifically Binding to the Unstructured Basic Region of Tat” (mBio, 2019).

System: recombinant Tat transactivation of HIV-1 5′ LTR-luciferase
Assay: Transactivation assay with recombinant Tat in HeLa-CD4-LTR-Luc cells
Type: cell-based
From the text: The production of functional recombinant HIV-1 Tat in Escherichia coli is not trivial as the proper folding of Tat is extremely important for activity, and when expressed by itself, Tat agglomerates mostly because of oxidation of the cysteine residues in the cysteine region. Tat can also adhere to different surfaces and anionic polymers via its charged and hydrophobic residues ([21], [22]). We produced and purified recombinant HIV Tat HXB3 (residues 1 to 89) with a 6×His tag in the C-terminus in E. coli. For this, we have partially optimized the arginine codon usage and changed the rare AGA into codon CGT at arginine positions 7, 53, 56, and 87 of Tat (Fig. 1A). […] After Tat purification using nickel affinity chromatography followed by size exclusion filtration, Tat protein size was analyzed by SDS-PAGE followed by Coomassie blue staining (Fig. 1B). The specificity of the bands was confirmed by Western blotting using anti-Tat serum and anti-His antibody (Fig. 1B). The purity of Tat was further verified by size exclusion chromatography and high-performance liquid chromatography (HPLC) (Fig. 1C and D). We confirmed the activity of Tat by performing transactivation assays in both HeLa-CD4 cells stably expressing the HIV-1 5′ long terminal repeat (LTR) promoter driving luciferase expression (HeLa-CD4-LTR-Luc cells) ([10]) and the OM10.1 cell line model of HIV-1 latency ([23]) (Fig. 1E and F; see Fig. S2A and S2B in the supplemental material). In HeLa-CD4-LTR-Luc cells, the activity of our purified Tat was similar to the published activity of Tat obtained from the AIDS Reagent Program ([10]). In addition, denatured Tat and Tat mutated in the basic domain (Tat Mut [arginine residues mutated to alanine residues]), used as negative controls, were unable to transactivate the reporter (Fig. S2A).
FIG 1 Purity and activity of the monomeric His-tagged Tat HXB3 and analysis of its direct binding to dCA. […] Statistical significance was determined using one-way ANOVA with post hoc Tukey’s test. ns, not significant; ***, P < 0.0001; *, P < 0.01. […]

SMILES	inhibition of recombinant Tat transactivation (luciferase)
C[C@@](Cc1ccc(O)c(O)c1)(NN)C(=O)O.O [SCM, S-(−)-carbidopamonohydrate, reference compound]	no inhibitory activity
CN(C)C1CC23CCC4(O2)C(=CCC2(C)C(c5ccc6ccncc6c5)=CCC24)C=C3C(O)C1O (stereo not drawn) [dCA, didehydro-cortistatin A]	blocked Tat transcriptional activity in a dose-dependent manner
Cc1nnc(C(=O)NC(C)(C)c2nc(C(=O)NCc3ccc(F)cc3)c(O)c(=O)n2C)o1 [raltegravir, reference compound]	no inhibitory activity
